From patent US8859463B2, “Method for controlling noxious organisms” (Sumitomo Chemical Company, Limited, priority 2009, dated 2014)

Legend:
Format in all cases: in vivo
[1] = tested on: Ipomoea lacunosa; assay: Herbicidal activity, corn pot test, Example 59; details: pyraclostrobin none, flumioxazin 25 g/ha, twelve days after sowing
Description: In a glass container measuring 60 mm in inner diameter and 20 mm in height, 8 mg of a pyraclostrobin emulsifiable concentrate (emulsifiable concentrate containing 23.8% pyraclostrobin, manufactured by BASF under the trade name of Comet) and 25 corn seeds were placed. After capping a glass container, the pyraclostrobin emulsifiable concentrate was adhered to the corn seeds by shaking the glass container by hand. In the same manner, 22 mg of the pyraclostrobin emulsifiable concentrate was adhered to the corn seeds.
A plastic pot measuring 194 mm in inner diameter and 176 mm in height was filled with the soil. In this pot, 2 corn seeds were sown per 1 pot and 10 seeds of Ipomoea lacunosa were sown per 1 pot. On the day of sowing of the corn seeds, after sowing the corn seeds, a water diluted solution (24.5 mg of product/liter) of a flumioxazin granular wettable powder (granular wettable powder containing 51% flumioxazin, manufactured by Valent USA Corporation under the trade name of Valor SX), a water diluted solution (66.7 mg of product/liter) of a sulfentrazone granular wettable powder (granular wettable powder containing 75% sulfentrazone, manufactured by FMC Corporation under the trade name of Cover), a water diluted solution (15 mg/liter) of saflufenacil and a water diluted solution (100 mg/liter) of oxyfluorfen were uniformly sprayed over a surface of the soil in each amount described in Tables 22 to 25, using a sprayer. The water diluted solutions of saflufenacil and oxyfluorfen were prepared by dissolving each predetermined amount of saflufenacil and oxyfluorfen in acetone containing 2% (w/v) Tween 20 and diluting each solution with water so as to adjust the concentration of acetone to 10% by volume.
Twelve days after sowing the seeds of corn and Ipomoea lacunose, herbicidal activity was examined.

[2] = tested on: Digitaria ciliaris; assay: Herbicidal activity, soybean pot test, Example 75; details: metalaxyl compound none, flumioxazin 50 g/ha, twelve days after sowing
Description: (§1) In a glass container measuring 60 mm in inner diameter and 20 mm in height, 12 mg of a metalaxyl emulsifiable concentrate (emulsifiable concentrate containing 25% metalaxyl, manufactured by Syngenta under the trade name of Subdue) and 20 soybean seeds were placed. After capping this glass container, the metalaxyl emulsifiable concentrate was adhered to the soybean seeds by shaking the glass container by hand. In the same manner, 47 mg of the metalaxyl emulsifiable concentrate was adhered to the soybean seeds. In the same manner, 9 mg of a metalaxyl-M emulsifiable concentrate (emulsifiable concentrate containing 33.3% metalaxyl-M manufactured by Syngeta under the trade name of Apron XL) was adhered to the soybean seeds. In the same manner, 40 mg of the metalaxyl-M emulsifiable concentrate was adhered to the soybean seeds.
(§2) A plastic pot measuring 194 mm in inner diameter and 176 mm in height was filled with the soil. In this pot, 2 soybean seeds were sown per 1 pot, 7 seeds of Ipomoea hederacea were sown per 1 pot, and 10 seeds of Digitaria ciliaris were sown per 1 pot. […]

[3] = tested on: Ipomoea hederacea; assay: Herbicidal activity, soybean pot test, Example 75; details: metalaxyl compound none, flumioxazin 50 g/ha, twelve days after sowing
Description: as §1, §2

[4] = tested on: soybean; assay: Phytotoxicity to soybean, Example 6; details: clothianidin none; flumioxazin 25 g/ha; day 11 after sowing
Text: (§3) A soil was packed in a 1/5000a Wagner pot. The above soybean seeds were sown in the Wagner pot at a rate of two seeds per pot, and the seeds of Ipomoea hederacea were sown in the pot at a rate of three seeds per pot.
(§4) On day 11 after sowing of the seeds of soybean and Ipomoea hederacea, the herbicidal effect and phytotoxicity were examined.

[5] = tested on: Ipomoea hederacea; assay: Herbicidal effect, soybean Wagner pot test, Example 6; details: clothianidin none; flumioxazin 25 g/ha; day 11 after sowing; scale 0 to 100
Text: as §3, §4

C#CCN1C(=O)COc2cc(F)c(N3C(=O)C4=C(CCCC4)C3=O)cc21 [Flumioxazin, flumioxazin]
Herbicidal activity [1]: 40 | Herbicidal activity Digitaria ciliaris [2]: 75 | Herbicidal activity Ipomoea hederacea [3]: 55 | Phytotoxicity to Soybean [4]: No harm | Evaluation of Effect on Weeds [5]: 25
